The source of these data is ChEMBL document CHEMBL1148514, “Development of lipopeptides for inhibiting 20S proteasomes” (Bioorg Med Chem Lett, 2006).

Assay [1] addresses T1, Proteasome Macropain subunit PRE2 (Saccharomyces cerevisiae S288c) (UniProt P30656).
T1 sequence (whole entry): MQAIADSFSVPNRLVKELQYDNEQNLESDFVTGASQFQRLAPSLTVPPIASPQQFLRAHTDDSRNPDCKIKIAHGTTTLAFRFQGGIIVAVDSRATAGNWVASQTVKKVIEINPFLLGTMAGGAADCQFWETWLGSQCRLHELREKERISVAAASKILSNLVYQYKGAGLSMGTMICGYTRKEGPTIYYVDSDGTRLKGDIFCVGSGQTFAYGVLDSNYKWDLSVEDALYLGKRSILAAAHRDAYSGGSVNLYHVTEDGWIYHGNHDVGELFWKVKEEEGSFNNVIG
In words: Inhibition of chymotrypsin like activity of yeast 20S proteasome at 625 uM.

In assay [2] the target is T2, Proteasome Macropain subunit (Saccharomyces cerevisiae S288c) (UniProt P22141).
T2 sequence (whole entry): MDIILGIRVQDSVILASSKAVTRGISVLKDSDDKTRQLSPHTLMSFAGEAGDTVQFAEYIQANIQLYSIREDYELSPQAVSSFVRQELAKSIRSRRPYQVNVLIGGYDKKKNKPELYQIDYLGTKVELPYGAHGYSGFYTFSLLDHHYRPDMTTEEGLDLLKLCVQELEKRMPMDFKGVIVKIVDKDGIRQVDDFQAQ
Briefly: Inhibition of trypsin like activity of yeast 20S proteasome at 625 uM.

The target of assay [3] is T3, Proteasome component C5 (Saccharomyces cerevisiae S288c) (UniProt P23724).
T3 sequence (whole entry): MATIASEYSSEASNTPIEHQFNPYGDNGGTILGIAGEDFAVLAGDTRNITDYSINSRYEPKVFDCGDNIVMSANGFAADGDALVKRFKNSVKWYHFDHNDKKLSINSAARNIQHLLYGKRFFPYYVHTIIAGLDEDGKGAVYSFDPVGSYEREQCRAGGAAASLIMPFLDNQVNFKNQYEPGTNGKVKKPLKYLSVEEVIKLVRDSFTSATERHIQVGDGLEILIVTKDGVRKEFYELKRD
In words: (§1) Inhibition of post acid activity of yeast 20S proteasome at 625 uM.

Assay [4] concerns the target T4, Proteasome Macropain subunit (Saccharomyces cerevisiae S288c, UniProt P22141).
T4 sequence (P22141 whole entry): T2 sequence (whole entry)
Briefly: Inhibition of trypsin like activity of yeast 20S proteasome.

For assay [5], the target named is T1, Proteasome Macropain subunit PRE2 (Saccharomyces cerevisiae S288c). Briefly: Inhibition of chymotrypsin like activity of yeast 20S proteasome at 80 uM.
In assay [6] the target is T3, Proteasome component C5 (Saccharomyces cerevisiae S288c). In words: Activation of post acid activity of yeast 20S proteasome.
Assay [7] has as its target T2, Proteasome Macropain subunit (Saccharomyces cerevisiae S288c). In words: Activation of trypsin like activity of yeast 20S proteasome.
The target of assay [8] is T5, Proteasome Macropain subunit PRE2 (Saccharomyces cerevisiae S288c, UniProt P30656).
T5 sequence (P30656 whole entry): T1 sequence (whole entry)
In words: Inhibition of chymotrypsin like activity of yeast 20S proteasome.

Assay [9] concerns the target T6, Proteasome component C5 (Saccharomyces cerevisiae S288c, UniProt P23724).
T6 sequence (P23724 whole entry): T3 sequence (whole entry)
The assay is described as §1.

Assay [10] concerns the target T2, Proteasome Macropain subunit (Saccharomyces cerevisiae S288c). In words: Inhibition of trypsin like activity of yeast 20S proteasome at 80 uM.
The target of assay [11] is T3, Proteasome component C5 (Saccharomyces cerevisiae S288c). In words: Inhibition of post acid activity of yeast 20S proteasome at 80 uM.
Assay [12] deals with T6, Proteasome component C5. In words: Inhibition of post acid activity of yeast 20S proteasome.
For assay [13], the target named is T1, Proteasome Macropain subunit PRE2 (Saccharomyces cerevisiae S288c). In words: Activation of chymotrypsin like activity of yeast 20S proteasome.

Residues, ends and D or L forms follow the SMILES beside them.

A word on the inhibition: it is how much of the control response was suppressed. As for H-TITYEY-OH, the inhibition in assay [1], in assay [2] and in assay [3] was less than 10% throughout.
What is called Ki is a measure of affinity in units of concentration, obtained from inhibition or displacement. A high value points to weaker binding. With `CCCCCCCCCCCCCC(=O)N[C@H](C(=O)N[C@H](C(=O)N[C@H](C(=O)N[C@@H](Cc1ccccc1)C(=O)N[C@@H](CC(=O)O)C(=O)N[C@@H](Cc1ccc(O)cc1)C(=O)O)[C@@H](C)O)[C@@H](C)CC)[C@@H](C)O` (HELM PEPTIDE1{[CCCCCCCCCCCCCC(=O)[*:2]].T.I.T.F.D.Y}$$$$V2.0), affinity in assay [4] was put at a Ki of 78 µM. In [5], this molecule returned an inhibition of less than 10%. The same molecule gave an Activity in [6] of 1.3.
With `CCCCCCCCCCCCCCCCCC(=O)N[C@H](C(=O)N[C@H](C(=O)N[C@H](C(=O)N[C@@H](Cc1ccccc1)C(=O)N[C@@H](CC(=O)O)C(=O)N[C@@H](Cc1ccc(O)cc1)C(=O)O)[C@@H](C)O)[C@@H](C)CC)[C@@H](C)O` (HELM PEPTIDE1{[CCCCCCCCCCCCCCCCCC(=O)[*:2]].T.I.T.F.D.Y}$$$$V2.0), the Activity was determined as 1.6 in assay [7] and 1.3 in assay [6]. In assay [8], this molecule registered a Ki of 39 µM.
For H-TITYKF-OH, in [2], the inhibition is less than 10%. Moreover, the Ki is 260 µM at Proteasome component C5 [9] and 151 µM in assay [8].
Regarding `CC(C)C[C@H](NC(=O)[C@H](CCC(=O)O)NC(=O)[C@@H](N)Cc1ccc(O)cc1)C(=O)O` (H-Tyr-Glu-Leu-OH), the inhibition in assay [5], in assay [10] and in assay [11] was less than 10% in each case.
With H-TITYDF-OH, the Ki at Proteasome component C5 [12] was greater than 625 µM. The inhibition in [1] and in assay [2] was less than 10% each time.
On to `CCCCCCCCCCCC(=O)N[C@@H](Cc1ccc(O)cc1)C(=O)N[C@@H](CCC(=O)O)C(=O)N[C@@H](CC(C)C)C(=O)O` (HELM PEPTIDE1{[CCCCCCCCCCCC(=O)[*:2]].Y.E.L}$$$$V2.0), for which the Ki in assay [4] was greater than 80 µM; on Proteasome component C5 [12] it was 62 µM. This molecule also displayed an inhibition in [5] of less than 10%.
For the molecule `CCCCCCCCCCCCCCCC(=O)OC`, the inhibition in [5], in assay [10] and in [11] was less than 10% in each case.
In [13], `CCCCCCCCCCCCCCCC(=O)N[C@H](C(=O)N[C@H](C(=O)N[C@H](C(=O)N[C@@H](Cc1ccc(O)cc1)C(=O)N[C@@H](CCCCN)C(=O)N[C@@H](Cc1ccccc1)C(=O)O)[C@@H](C)O)C(C)C)[C@@H](C)O` (HELM PEPTIDE1{[CCCCCCCCCCCCCCCC(=O)[*:2]].T.V.T.Y.K.F}$$$$V2.0) came in with an Activity of 1.6.
As to `CCCCCCCC(=O)N[C@@H](Cc1ccc(O)cc1)C(=O)N[C@@H](CCC(=O)O)C(=O)N[C@@H](CC(C)C)C(=O)O` (HELM PEPTIDE1{[CCCCCCCC(=O)[*:2]].Y.E.L}$$$$V2.0), the inhibition in assay [11] was less than 10%. Further, the Activity in [7] stood at 1.9. Besides, the Ki in [8] is greater than 80 µM.
H-TVTYKL-OH: the inhibition in assay [2] and in [3] was less than 10% each time. The Ki in assay [8] turned out to be 545 µM.
In the case of `N[C@@H](Cc1ccc(O)cc1)C(=O)N[C@@H](CCC(=O)O)C(=O)N[C@@H](CC(=O)O)C(=O)O` (H-Tyr-Glu-Asp-OH), the inhibition in assay [5], in assay [10] and in assay [11] was less than 10% in each case.
As for `CCCCCCCCCCCCCCC(N)C(=O)O` (stereo not drawn), the inhibition in [5], in assay [10] and in assay [11] was less than 10% each time.
Turning to `CCCCCCCC(=O)N[C@H](C(=O)N[C@H](C(=O)N[C@H](C(=O)N[C@@H](Cc1ccc(O)cc1)C(=O)N[C@@H](CCCCN)C(=O)N[C@@H](Cc1ccccc1)C(=O)O)[C@@H](C)O)C(C)C)[C@@H](C)O` (HELM PEPTIDE1{[CCCCCCCC(=O)[*:2]].T.V.T.Y.K.F}$$$$V2.0), the Activity came out at 1.2 in assay [7] and 1.3 in [6]. In assay [8], the Ki turned out to be 20 µM.
On to H-TVTYDY-OH, for which the inhibition in assay [1], in assay [2] and in assay [3] was less than 10% each time.
